Laboratory results taken from US8546401B2, “5,6-disubstituted oxindole-derivatives and use thereof for treating vasopressin-dependent diseases” (AbbVie Deutschland GmbH & Co. KG, priority 2007, dated 2013).

How the values were obtained:
[1] = target: T1, human vasopressin V1b receptor (Homo sapiens, UniProt P47901); test: Vasopressin V1b receptor binding assay; settings: CHO-K1 membranes, 3H-AVP displacement
T1 construct: expressed in transfected cells; host or cells: CHO-K1 (cell line hV1b_3H2_CHO), membrane preparation
T1 sequence (P47901 1-424): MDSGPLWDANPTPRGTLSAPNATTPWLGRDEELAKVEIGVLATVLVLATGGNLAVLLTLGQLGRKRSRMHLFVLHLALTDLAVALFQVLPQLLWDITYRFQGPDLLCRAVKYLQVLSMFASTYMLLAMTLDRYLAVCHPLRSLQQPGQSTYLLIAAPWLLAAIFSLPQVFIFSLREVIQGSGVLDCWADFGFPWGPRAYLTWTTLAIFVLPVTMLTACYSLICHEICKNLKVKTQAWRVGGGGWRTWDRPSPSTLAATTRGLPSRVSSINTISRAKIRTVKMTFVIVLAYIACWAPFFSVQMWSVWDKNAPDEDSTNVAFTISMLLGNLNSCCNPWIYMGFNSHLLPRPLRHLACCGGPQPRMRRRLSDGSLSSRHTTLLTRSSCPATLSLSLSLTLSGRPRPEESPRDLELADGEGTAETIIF
How it was run: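 Membranes (50 μg/ml protein) from CHO-K1 cells stably expressing human V1b were incubated with 1.5 nM ^3H-AVP in 50 mM Tris, 10 mM MgCl2, 0.1% BSA, pH 7.4, for 60 min at room temperature, 2% DMSO final. Bound ligand measured after filtration; Ki derived by nonlinear regression using Kd 0.4 nM.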

[2] = target: T2, human vasopressin V1a receptor (Homo sapiens, UniProt P37288); test: Vasopressin V1a receptor binding assay; settings: selectivity quotient, human receptors
T2 construct: expressed in transfected cells; host or cells: CHO-K1 (cell line hV1a_5_CHO), membrane preparation
How it was run: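 Membranes from CHO-K1 cells stably expressing the receptor (hV1a_5_CHO; 20 μg/ml protein) were incubated 60 min at room temperature with 0.04 nM ^125I-AVP and increasing test compound in 50 mM Tris, 10 mM MgCl2, 0.1% BSA, pH 7.4. Nonspecific binding was defined with 1 μM AVP and read by filtration and scintillation. Ki came from nonlinear regression using Kd 1.33 nM.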

[3] = target: T3, human oxytocin receptors (Homo sapiens, UniProt P30559); test: Oxytocin receptor binding assay; settings: selectivity quotient
T3 construct: expressed in transfected cells; host or cells: HEK-293, transient expression; lysed and homogenized cells
T3 sequence (P30559 1-389): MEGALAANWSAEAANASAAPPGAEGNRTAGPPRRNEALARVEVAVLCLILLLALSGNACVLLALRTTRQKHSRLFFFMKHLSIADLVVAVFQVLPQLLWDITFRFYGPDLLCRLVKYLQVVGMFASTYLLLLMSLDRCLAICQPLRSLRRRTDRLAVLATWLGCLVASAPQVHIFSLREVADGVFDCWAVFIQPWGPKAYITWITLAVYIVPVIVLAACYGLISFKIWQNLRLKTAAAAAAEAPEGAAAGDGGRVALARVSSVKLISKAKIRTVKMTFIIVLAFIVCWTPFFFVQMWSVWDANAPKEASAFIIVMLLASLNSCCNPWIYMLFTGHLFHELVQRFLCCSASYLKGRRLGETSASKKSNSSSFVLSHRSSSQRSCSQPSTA
How it was run: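 Membranes from HEK-293 cells transiently expressing human oxytocin receptor, incubated with 3-4 nM ^3H-oxytocin in 50 mM Tris, 10 mM MgCl2, 0.1% BSA, pH 7.4; nonspecific binding with 10^−6 M oxytocin. Filtration and scintillation counting; Ki by nonlinear regression using Kd 7.6 nM.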

T2 sequence (P37288 whole entry): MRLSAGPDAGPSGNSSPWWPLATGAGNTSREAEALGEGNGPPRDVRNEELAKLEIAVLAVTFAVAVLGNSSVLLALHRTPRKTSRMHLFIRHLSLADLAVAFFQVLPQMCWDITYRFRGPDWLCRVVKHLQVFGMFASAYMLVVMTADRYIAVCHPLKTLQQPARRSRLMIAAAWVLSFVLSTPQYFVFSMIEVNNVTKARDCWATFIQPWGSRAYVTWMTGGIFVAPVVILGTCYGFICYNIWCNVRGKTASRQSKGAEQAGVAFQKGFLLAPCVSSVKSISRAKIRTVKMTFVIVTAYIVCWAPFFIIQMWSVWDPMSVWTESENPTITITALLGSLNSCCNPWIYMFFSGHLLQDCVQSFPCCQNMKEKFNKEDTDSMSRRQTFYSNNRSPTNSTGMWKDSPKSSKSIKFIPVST

Row | Structure (SMILES) | Ki [1] [nM] | Ki(h − V1a)/Ki(h − V1b)* [2] | Ki(h − OT)/Ki(h − V1b)* [3]
1 | CCOc1ncccc1C1(OC(=O)N2CCN(C3CCN(C)CC3)CC2)C(=O)N(S(=O)(=O)c2ccc(OC)cc2OC)c2cc(F)c(Cl)cc21 (stereo not drawn) [Example 41, 5-Chloro-1-(2,4-dimethoxyphenylsulfonyl)-3-(2-ethoxypyridin-3-yl)-6-fluoro-2-oxo-2,3-dihydro-1H-indol-3-yl 4-(1-methylpiperidin-4-yl)piperazine-1-carboxylate] | < 1 | + (10-<25) | + (10-<25)
2 | CCOc1ncccc1C1(NC(=O)N2CCN(C3CCN(CC)CC3)CC2)C(=O)N(S(=O)(=O)c2ccccc2)c2cc(F)c(Cl)cc21 (stereo not drawn) [Example 22, 4-(1-Ethylpiperidin-4-yl)piperazine-1-[1-phenylsulfonyl-5-chloro-3-(2-ethoxypyridin-3-yl)-6-fluoro-2-oxo-2,3-dihydro-1H-indol-3-yl]carboxamide] | 1 to 10 | + (10-<25) | +++ (>75)
3 | CCOc1ncccc1C1(OC(=O)N2CCN(C3CCN(C)CC3)CC2)C(=O)N(S(=O)(=O)c2ccccc2OC)c2cc(Cl)c(F)cc21 (stereo not drawn) [Example 50, 6-Chloro-3-(2-ethoxypyridin-3-yl)-5-fluoro-1-(2-methoxyphenylsulfonyl)-2-oxo-2,3-dihydro-1H-indol-3-yl 4-(1-methylpiperidin-4-yl)piperazine-1-carboxylate] | 10 to 100 | + (10-<25) | ++ (25-75)
4 | CCOc1ncccc1C1(NC(=O)N2CCC(N3CCN(CC)CC3)CC2)C(=O)N(S(=O)(=O)c2ccc(OC)cc2)c2cc(F)c(C#N)cc21 (stereo not drawn) [Example 8, 4-(4-Ethylpiperazin-1-yl)piperidine-1-[5-cyano-3-(2-ethoxypyridin-3-yl)-6-fluoro-1-(4-methoxyphenylsulfonyl)-2-oxo-2,3-dihydro-1H-indol-3-yl]carboxamide] | 1 to 10 | ++ (25-75) | +++ (>75)
5 | CCOc1ncccc1C1(OC(=O)N2CCN(C3CCN(C)CC3)CC2)C(=O)N(S(=O)(=O)c2ccc(OC)cc2OC)c2cc(F)c(F)cc21 (stereo not drawn) [Example 51, 1-(2,4-dimethoxyphenylsulfonyl)-3-(2-ethoxypyridin-3-yl)-5,6-difluoro-2-oxo-2,3-dihydro-1H-indol-3-yl 4-(1-methylpiperidin-4-yl)piperazine-1-carboxylate] | 1 to 10 | +++ (>75) | ++ (25-75)
6 | CCOc1ccccc1C1(NC(=O)N2CCN(C3CCN(CC)CC3)CC2)C(=O)N(S(=O)(=O)c2ccc(OC)cc2)c2cc(F)c(C#N)cc21 (stereo not drawn) [Example 12, 4-(1-Ethylpiperidin-4-yl)piperazine-1-[5-cyano-3-(2-ethoxyphenyl)-6-fluoro-1-(4-methoxyphenylsulfonyl)-2-oxo-2,3-dihydro-1H-indol-3-yl]carboxamide] | 1 to 10 | +++ (>75) | +++ (>75)
7 | CCOc1ncccc1C1(OC(=O)N2CCN(C3CCN(C)CC3)CC2)C(=O)N(S(=O)(=O)c2ccccc2OC)c2cc(F)c(F)cc21 (stereo not drawn) [Example 53, 3-(2-Ethoxypyridin-3-yl)-5,6-difluoro-1-(2-methoxyphenylsulfonyl)-2-oxo-2,3-dihydro-1H-indol-3-yl 4-(1-methylpiperidin-4-yl)piperazine-1-carboxylate] | 1 to 10 | ++ (25-75) | ++ (25-75)
8 | CCOc1ncccc1C1(OC(=O)N2CCN(C3CCN(C)CC3)CC2)C(=O)N(S(=O)(=O)c2ccccc2)c2cc(F)c(Cl)cc21 (stereo not drawn) [Example 45, 1-Phenylsulfonyl-5-chloro-3-(2-ethoxypyridin-3-yl)-6-fluoro-2-oxo-2,3-dihydro-1H-indol-3-yl 4-(1-methylpiperidin-4-yl)piperazine-1-carboxylate] | 1 to 10 | + (10-<25) | +++ (>75)

The next lines start with the values.

Row | Ki [1] [nM] | Ki(h − V1a)/Ki(h − V1b)* [2] | Ki(h − OT)/Ki(h − V1b)* [3] | Structure (SMILES)
9 | < 1 | ++ (25-75) | ++ (25-75) | CCOc1ncccc1C1(NC(=O)N2CCN(C3CCN(C)CC3)CC2)C(=O)N(S(=O)(=O)c2ccc(OC)cc2OC)c2cc(F)c(Cl)cc21 (stereo not drawn) [Example 19, 4-(1-Methylpiperidin-4-yl)piperazine-1-[5-chloro-1-(2,4-dimethoxyphenylsulfonyl)-3-(2-ethoxypyridin-3-yl)-6-fluoro-2-oxo-2,3-dihydro-1H-indol-3-yl]carboxamide]
10 | < 1 | ++ (25-75) | +++ (>75) | CCOc1ncccc1C1(NC(=O)N2CCC(N3CCN(C)CC3)CC2)C(=O)N(S(=O)(=O)c2ccc(OC)cc2OC)c2cc(F)c(C#N)cc21 (stereo not drawn) [Example 3, 4-(4-Methylpiperazin-1-yl)piperidine-1-[5-cyano-1-(2,4-dimethoxyphenylsulfonyl)-3-(2-ethoxypyridin-3-yl)-6-fluoro-2-oxo-2,3-dihydro-1H-indol-3-yl]carboxamide]
11 | < 1 | +++ (>75) | +++ (>75) | CCOc1ncccc1C1(OC(=O)N2CCN(C3CCN(C)CC3)CC2)C(=O)N(S(=O)(=O)c2ccc(OC)cc2OC)c2cc(F)c(C#N)cc21 (stereo not drawn) [Example 38, 5-Cyano-1-(2,4-dimethoxybenzenesulfonyl)-3-(2-ethoxypyridin-3-yl)-6-fluoro-2-oxo-2,3-dihydro-1H-indol-3-yl 4-(1-methylpiperidin-4-yl)piperazine-1-carboxylate]
12 | < 1 | +++ (>75) | +++ (>75) | CCOc1ncccc1C1(NC(=O)N2CCN(C3CCN(C)CC3)CC2)C(=O)N(S(=O)(=O)c2ccc(OC)cc2OC)c2cc(F)c(C#N)cc21 (stereo not drawn) [Example 1, 4-(1-Methylpiperidin-4-yl)piperazin-1-[5-cyano-1-(2,4-dimethoxyphenylsulfonyl)-3-(2-ethoxypyridin-3-yl)-6-fluoro-2-oxo-2,3-dihydro-1H-indol-3-yl]carboxamide]
